Laboratory results as given in patent US8148391B2 (Cephalon, Inc., priority 2006, dated 2012).
Like-named read-outs stand apart in the source and are kept apart here.

Columns and labels:
[1] = target: T1, c-Met (cytoplasmic domain) (Homo sapiens, UniProt P08581); experiment: c-Met Kinase Assay (same methods as for ALK, with modifications); type: biochemical
T1 construct: 10 ng/mL c-Met (cytoplasmic domain, Invitrogen Corporation #PV3143); purchased Invitrogen Corporation PV3143
How it was run: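 Steps: coat wells with PLC-γ (10 μg/mL, Tris-buffered saline); add 10 ng/mL c-Met cytoplasmic domain to initiate; incubate 15 min, 37° C; detect phosphoproduct via Eu-N1 PT66 antibody.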

[2] = target: T2, baculovirus-expressed ALK (Homo sapiens, UniProt Q9UM73); experiment: ALK Kinase Assay (ELISA-type, time-resolved fluorescence); type: biochemical
T2 construct: host or cells: baculovirus expression system
How it was run: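 Wells were coated with phospholipase C-γ at 10 μg/mL in Tris-buffered saline. Adding 30 ng/ml enzyme started the reaction, which ran at 37° C for 15 minutes before Eu-N1 PT66 antibody detection. Percent inhibition versus log10 concentration gave IC50 by variable-slope fit.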

[3] = 1 μM ATP (Km level), read-out: cMet Activity (c-Met Kinase Inhibition, IC50)
[4] = 1 μM ATP (Km level), read-out: ALK Activity (ALK Kinase Inhibition, IC50)
[5] = c-Met kinase inhibition, 1 μM ATP (Km level), read-out: cMet Activity
[6] = ALK kinase inhibition, 1 μM ATP (Km level), read-out: ALK Activity
[7] = c-Met kinase inhibition, 1 μM ATP, read-out: cMet Activity
[8] = ALK kinase inhibition, 1 μM ATP, read-out: ALK Activity
[9] = 1 μM ATP (Km level), 10 ng/mL c-Met, read-out: cMet Activity (c-Met kinase inhibition, IC50 class)
[10] = 1 μM ATP (Km level), 30 ng/ml ALK, 37° C., 15 minutes, read-out: ALK Activity (ALK kinase inhibition, IC50 class)

T1 sequence (P08581 956-1390 limits assumed): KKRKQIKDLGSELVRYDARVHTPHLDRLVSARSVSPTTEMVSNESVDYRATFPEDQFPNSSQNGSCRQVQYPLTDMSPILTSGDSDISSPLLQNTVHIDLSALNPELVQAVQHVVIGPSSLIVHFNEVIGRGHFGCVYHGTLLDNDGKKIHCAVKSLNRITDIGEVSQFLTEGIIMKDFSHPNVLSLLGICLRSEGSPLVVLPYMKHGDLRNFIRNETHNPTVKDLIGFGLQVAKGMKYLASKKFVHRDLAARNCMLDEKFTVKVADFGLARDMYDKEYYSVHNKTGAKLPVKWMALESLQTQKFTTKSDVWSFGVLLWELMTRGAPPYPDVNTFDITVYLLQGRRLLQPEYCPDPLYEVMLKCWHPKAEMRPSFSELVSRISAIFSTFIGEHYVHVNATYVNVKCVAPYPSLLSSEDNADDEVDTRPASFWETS
T2 sequence (Q9UM73 19-1620): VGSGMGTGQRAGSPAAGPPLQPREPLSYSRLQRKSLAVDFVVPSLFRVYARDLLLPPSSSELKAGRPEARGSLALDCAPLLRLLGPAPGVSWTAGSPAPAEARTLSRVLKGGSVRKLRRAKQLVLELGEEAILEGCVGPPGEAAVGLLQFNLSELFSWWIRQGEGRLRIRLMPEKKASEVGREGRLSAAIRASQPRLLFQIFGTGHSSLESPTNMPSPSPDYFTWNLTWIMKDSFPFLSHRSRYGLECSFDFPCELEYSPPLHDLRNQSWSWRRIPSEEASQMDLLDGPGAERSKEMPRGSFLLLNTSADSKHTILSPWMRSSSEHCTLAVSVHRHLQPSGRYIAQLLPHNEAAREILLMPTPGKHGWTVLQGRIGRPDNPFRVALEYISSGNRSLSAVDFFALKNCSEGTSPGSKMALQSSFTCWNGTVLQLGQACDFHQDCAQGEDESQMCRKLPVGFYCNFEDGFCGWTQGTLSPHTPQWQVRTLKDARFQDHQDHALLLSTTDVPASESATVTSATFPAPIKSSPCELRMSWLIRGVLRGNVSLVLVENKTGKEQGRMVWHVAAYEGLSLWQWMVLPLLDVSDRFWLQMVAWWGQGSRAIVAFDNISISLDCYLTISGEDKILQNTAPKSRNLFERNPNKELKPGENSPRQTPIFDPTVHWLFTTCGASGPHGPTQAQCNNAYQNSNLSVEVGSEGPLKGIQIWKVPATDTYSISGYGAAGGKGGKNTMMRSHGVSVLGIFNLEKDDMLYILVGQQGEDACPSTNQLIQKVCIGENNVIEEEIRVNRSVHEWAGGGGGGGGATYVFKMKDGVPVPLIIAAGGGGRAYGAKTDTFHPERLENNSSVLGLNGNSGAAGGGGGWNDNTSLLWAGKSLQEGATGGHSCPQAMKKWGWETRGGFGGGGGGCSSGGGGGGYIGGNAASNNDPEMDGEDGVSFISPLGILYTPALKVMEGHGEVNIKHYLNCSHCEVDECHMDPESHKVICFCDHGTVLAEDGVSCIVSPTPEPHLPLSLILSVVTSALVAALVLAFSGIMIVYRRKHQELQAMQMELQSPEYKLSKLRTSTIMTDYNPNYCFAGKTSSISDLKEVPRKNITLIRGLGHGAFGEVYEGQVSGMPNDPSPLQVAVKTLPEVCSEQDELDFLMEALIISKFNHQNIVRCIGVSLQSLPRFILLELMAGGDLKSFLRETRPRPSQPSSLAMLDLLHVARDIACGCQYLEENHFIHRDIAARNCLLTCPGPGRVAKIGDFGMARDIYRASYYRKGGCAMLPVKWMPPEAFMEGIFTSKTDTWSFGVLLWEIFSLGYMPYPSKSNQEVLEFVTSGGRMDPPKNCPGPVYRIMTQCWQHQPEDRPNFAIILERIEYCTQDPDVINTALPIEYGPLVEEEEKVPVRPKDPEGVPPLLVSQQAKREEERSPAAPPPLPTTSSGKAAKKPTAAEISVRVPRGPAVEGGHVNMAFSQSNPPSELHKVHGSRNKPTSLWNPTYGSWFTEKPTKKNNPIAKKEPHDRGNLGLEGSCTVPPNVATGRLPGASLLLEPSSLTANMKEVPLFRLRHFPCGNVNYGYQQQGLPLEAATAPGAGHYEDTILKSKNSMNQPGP

CNC(=O)c1ccccc1Nc1nc(Nc2cc3c(cc2OC)CCN(CC(F)F)CC3)ncc1Cl [Example 766, 2-{5-Chloro-2-[3-(2,2-difluoro-ethyl)-8-methoxy-2,3,4,5-tetrahydro-1H-benzo[d]azepin-7-ylamino]-pyrimidin-4-ylamino}-N-methyl-benzamide]
IC50 [1, 3]: 1000 to 10000 nM | IC50 [2, 4]: < 100 nM

CNC(=O)c1ccccc1Nc1nc(Nc2ccc3c(c2)C(=O)NCCO3)ncc1Cl [Example 1880, 2-[5-Chloro-2-(5-oxo-2,3,4,5-tetrahydro-benzo[f][1,4]oxazepin-7-ylamino)-pyrimidin-4-ylamino]-N-methyl-benzamide]
IC50 [1, 5]: < 100 nM | IC50 [2, 6]: < 100 nM

CNC(=O)c1ccccc1Nc1nc(Nc2cc3c(cc2OC)N(C)C(=O)OCC3)ncc1Br [Example 1507, 2-[5-Bromo-2-(3-methoxy-5-methyl-6-oxo-5,6,8,9-tetrahydro-7-oxa-5-aza-benzocyclohepten-2-ylamino)-pyrimidin-4-ylamino]-N-methyl-benzamide]
IC50 [1, 7]: 100 to 1000 nM | IC50 [2, 8]: < 100 nM

COCCN1CCc2cc(Nc3ncc(Cl)c(N[C@H]4[C@@H](C(N)=O)[C@@H]5C=C[C@H]4C5)n3)c(OC)cc2CC1 [Example 1315, (1S,2S,3R,4R)-3-{5-Chloro-2-[8-methoxy-3-(2-methoxy-ethyl)-2,3,4,5-tetrahydro-1H-benzo[d]azepin-7-ylamino]-pyrimidin-4-ylamino}-bicyclo[2.2.1]hept-5-ene-2-carboxylic acid amide]
IC50 [1, 9]: > 10000 nM | IC50 [2, 10]: < 100 nM

OC1CCc2ccc(Nc3ncc(Cl)c(Nc4ccccc4-n4cccn4)n3)cc2CC1 (stereo not shown) [Example 1035, 2-[5-Chloro-4-(2-pyrazol-1-yl-phenylamino)-pyrimidin-2-ylamino]-6,7,8,9-tetrahydro-5H-benzocyclohepten-7-ol]
IC50 [1, 9]: 100 to 1000 nM | IC50 [2, 10]: < 100 nM

COc1cc2c(cc1Nc1ncc(Cl)c(Nc3ccccc3S(=O)(=O)N(C)C)n1)CCN(CCCN1CCOCC1)C(=O)C2 [Example 1183, 2-{5-Chloro-2-[8-methoxy-3-(3-morpholin-4-yl-propyl)-2-oxo-2,3,4,5-tetrahydro-1H-benzo[d]azepin-7-ylamino]-pyrimidin-4-ylamino}-N,N-dimethyl-benzenesulfonamide]
IC50 [1, 9]: > 10000 nM | IC50 [2, 10]: < 100 nM

CCN1CCc2ccc(Nc3ncc(Cl)c(N[C@@H]4CCCC[C@H]4NS(C)(=O)=O)n3)cc2CC1 [Example 441, N-{(1R,2R)-2-[5-Chloro-2-(3-ethyl-2,3,4,5-tetrahydro-1H-benzo[d]azepin-7-ylamino)-pyrimidin-4-ylamino]-cyclohexyl}methanesulfonamide]
IC50 [1, 5]: 100 to 1000 nM | IC50 [2, 6]: < 100 nM

O=C1CCCc2ccc(Nc3ncc(Cl)c(Nc4c(F)cccc4OC4CCOCC4)n3)cc2N1 [Example 1281, 8-{5-Chloro-4-[2-fluoro-6-(tetrahydro-pyran-4-yloxy)-phenylamino]-pyrimidin-2-ylamino}-1,3,4,5-tetrahydro-1-benzazepin-2-one]
IC50 [1, 9]: 1000 to 10000 nM | IC50 [2, 10]: 100 to 1000 nM

CNC(=O)CN1CCc2cc(Nc3ncc(F)c(Nc4ccc(N5CCOCC5)cc4OC)n3)c(OC)cc2CC1 [Example 809, 2-{7-[5-Fluoro-4-(2-methoxy-4-morpholin-4-yl-phenylamino)-pyrimidin-2-ylamino]-8-methoxy-1,2,4,5-tetrahydro-benzo[d]azepin-3-yl}-N-methyl-acetamide]
IC50 [1, 3]: > 10000 nM | IC50 [2, 4]: < 100 nM

COCCN1CCc2ccc(Nc3ncc(Cl)c(Nc4ccc(N5CCOCC5)cc4OC)n3)cc2CC1 [Example 309, 5-Chloro-N*2*-[3-(2-methoxy-ethyl)-2,3,4,5-tetrahydro-1H-benzo[d]azepin-7-yl]-N*4*-(2-methoxy-4-morpholin-4-yl-phenyl)-pyrimidine-2,4-diamine]
IC50 [1, 5]: 100 to 1000 nM | IC50 [2, 6]: < 100 nM

CCN1CCc2ccc(Nc3ncc(Cl)c(Nc4cccc(OCC#N)c4)n3)cc2CC1 [Example 927, {3-[5-Chloro-2-(3-ethyl-2,3,4,5-tetrahydro-1H-benzo[d]azepin-7-ylamino)-pyrimidin-4-ylamino]-phenoxy}-acetonitrile]
IC50 [1, 3]: 100 to 1000 nM | IC50 [2, 4]: < 100 nM

CCNC(=O)c1ccccc1Nc1nc(Nc2cc3c(cc2OC)CCN(CC(=O)NC)CC3)ncc1Cl [Example 1115, 2-[5-Chloro-2-(8-methoxy-3-methylcarbamoylmethyl-2,3,4,5-tetrahydro-1H-benzo[d]azepin-7-ylamino)-pyrimidin-4-ylamino]-N-ethyl-benzamide]
IC50 [1, 9]: 1000 to 10000 nM | IC50 [2, 10]: < 100 nM

COc1cc2c(cc1Nc1ncc(Cl)c(Nc3ccccc3S(=O)(=O)C(C)C)n1)CCN(CCN1CCOCC1)CC2 [Example 1534, 5-Chloro-N(2)-[8-methoxy-3-(2-morpholin-4-yl-ethyl)-2,3,4,5-tetrahydro-1H-3-benzazepin-7-yl]-N(4)-[2-(propane-2-sulfonyl)-phenyl]-pyrimidine-2,4-diamine]
IC50 [1, 7]: > 10000 nM | IC50 [2, 8]: < 100 nM

CS(=O)(=O)N[C@@H]1CCCC[C@H]1Nc1nc(Nc2ccc3c(c2)CCC(NCC(F)(F)F)CC3)ncc1Cl (stereo partly drawn) [Example 656, N-((1R,2R)-2-{5-Chloro-2-[7-(2,2,2-trifluoro-ethylamino)-6,7,8,9-tetrahydro-5H-benzocyclohepten-2-ylamino]-pyrimidin-4-ylamino}-cyclohexyl)-methanesulfonamide]
IC50 [1, 3]: 100 to 1000 nM | IC50 [2, 4]: < 100 nM

CCN1C(=O)C(NC(=O)COC)CCc2c1ccc(Nc1ncc(Cl)c(Nc3ccccc3S(=O)(=O)N(C)C)n1)c2OC (stereo not shown) [Example 1352, N-{7-[5-Chloro-4-(2-dimethylsulfamoyl-phenylamino)-pyrimidin-2-ylamino]-1-ethyl-6-methoxy-2-oxo-2,3,4,5-tetrahydro-1H-benzo[b]azepin-3-yl}-2-methoxy-acetamide]
IC50 [1, 9]: > 10000 nM | IC50 [2, 10]: < 100 nM

COc1cc(N(C)C)ccc1Nc1nc(Nc2ccc3c(c2)C(C)(C)CCC(=O)N3C)ncc1Cl [Example 1342, 7-[5-Chloro-4-(4-dimethylamino-2-methoxy-phenylamino)-pyrimidin-2-ylamino]-1,5,5-trimethyl-1,3,4,5-tetrahydro-benzo[b]azepin-2-one]
IC50 [1, 9]: 1000 to 10000 nM | IC50 [2, 10]: < 100 nM

CNC(=O)c1cccc(F)c1Nc1nc(Nc2ccc3c(c2)N(C(C)=O)CCCC3(C)C)ncc1Cl [Example 1596, 2-[2-(1-Acetyl-5,5-dimethyl-2,3,4,5-tetrahydro-1H-benzo[b]azepin-8-ylamino)-5-chloro-pyrimidin-4-ylamino]-3-fluoro-N-methyl-benzamide]
IC50 [1, 7]: < 100 nM | IC50 [2, 8]: 100 to 1000 nM

COCCN1CCN(C)c2ccc(Nc3ncc(Cl)c(N[C@@H]4CCCC[C@H]4NS(C)(=O)=O)n3)cc2C1 [Example 430, N-((1R,2R)-2-{5-Chloro-2-[4-(2-methoxy-ethyl)-1-methyl-2,3,4,5-tetrahydro-1H-benzo[e][1,4]diazepin-7-ylamino]-pyrimidin-4-ylamino}-cyclohexyl)-methanesulfonamide]
IC50 [1, 5]: 1000 to 10000 nM | IC50 [2, 6]: < 100 nM

CCC1C(=O)N(CC)CCc2cc(Nc3ncc(Cl)c(NC4CCCCC4NS(C)(=O)=O)n3)c(OC)cc21 [Example 151, N-{(1R,2R)-2-[5-Chloro-2-(1,3-diethyl-8-methoxy-2-oxo-2,3,4,5-tetrahydro-1H-benzo[d]azepin-7-ylamino)-pyrimidin-4-ylamino]-cyclohexyl-methanesulfonamide]
IC50 [1, 5]: > 10000 nM | IC50 [2, 6]: < 100 nM

CC(C)CN1C(=O)CCC(C)(C)c2ccc(Nc3ncc(Cl)c(N[C@H]4[C@@H](C(N)=O)[C@@H]5C=C[C@H]4C5)n3)cc21 [Example 1593, (1S,2S,3R,4R)-3-[5-Chloro-2-(1-isobutyl-5,5-dimethyl-2-oxo-2,3,4,5-tetrahydro-1H-benzo[b]azepin-8-ylamino)-pyrimidin-4-ylamino]-bicyclo[2.2.1]hept-5-ene-2-carboxylic acid amide]
IC50 [1, 7]: 1000 to 10000 nM | IC50 [2, 8]: < 100 nM

COCCN1CCc2ccc(Nc3ncc(Cl)c(N[C@H]4CC[C@@H](NS(C)(=O)=O)CC4)n3)cc2CC1 [Example 1381, cis-N-(4-{5-Chloro-2-[3-(2-methoxy-ethyl)-2,3,4,5-tetrahydro-1H-benzo[d]azepin-7-ylamino]-pyrimidin-4-ylamino}-cyclohexyl)-methanesulfonamide]
IC50 [1, 9]: 1000 to 10000 nM | IC50 [2, 10]: 100 to 1000 nM

CNC(=O)[C@@H]1[C@H](Nc2nc(Nc3ccc4c(c3)C(C)(C)CCC(=O)N4)ncc2Cl)[C@H]2C=C[C@@H]1C2 (relative stereo) [Example 620, (2-exo-3-exo)-3-[5-Chloro-2-(5,5-dimethyl-2-oxo-2,3,4,5-tetrahydro-1H-benzo[b]azepin-7-ylamino)-pyrimidin-4-ylamino]-bicyclo[2.2.1]hept-5-ene-2-carboxylic acid methylamide]
IC50 [1, 3]: 100 to 1000 nM | IC50 [2, 4]: < 100 nM

CC(=O)c1ccccc1Nc1nc(Nc2ccc3c(c2)CCCC(=O)N3C)ncc1Cl [Example 351, 7-[4-(2-Acetyl-phenylamino)-5-chloro-pyrimidin-2-ylamino]-1-methyl-1,3,4,5-tetrahydro-benzo[b]azepin-2-one]
IC50 [1, 5]: < 100 nM | IC50 [2, 6]: < 100 nM
